Literature values in US9107921B2, “Oral dosage forms for oxygen containing active agents and oxyl-containing polymers” (Spriaso LLC, priority 2012, dated 2015).
Where a name gives a salt, the structure may show the parent alone.

Legend:
[1] = for plasma half-life: in vivo

COc1ccc2c3c1O[C@H]1C(=O)CC[C@H]4[C@@H](C2)N(C)CC[C@]314 [Hydrocodone]
plasma half-life [1]: 3.8 to 6 h

CN(C)CCC(c1ccc(Cl)cc1)c1ccccn1 (centres unmarked) [chlorpheniramine, Chlorpheniramine]
time to peak plasma concentration ([1]; following oral administration): 2 to 3 h
time to 50% in vitro drug release (single-layer matrix tablet, HPMC polymer (Methocel K4M) to active ratio of about 1:1): about 3.5 hours

COc1ccc2c3c1O[C@H]1[C@@H](O)C=C[C@H]4[C@@H](C2)N(C)CC[C@@]341 [codeine, 3-methylmorphine]
plasma half-life [1]: 2.5 to 3 h

CC(C)NCC(O)COc1cccc2ccccc12 (centres unmarked) [propranolol HCl]
time to 50% drug release in vitro (matrix tablet, HPMC (Methocel K4M) to active agent ratio 1:0.3 by weight): about 4 hours
